Results taken from patent US10016500B2, “Poloxamer-based pharmaceutical compositions for treating wounds” (Professional Compounding Centers of America (PCCA), priority 2014, dated 2018).

Test system: C. albicans ATCC 90028 biofilm
Test: Antifungal biofilm susceptibility testing (Minimum Biofilm Inhibitory Concentration, broth microdilution, CellTiter 96)
Assay type: cell-based, Candida albicans
Conditions: for Minimum Biofilm Inhibitory Concentration: lowest concentration giving 50% reduction of fungal growth, 48 h at 35° C., combination expressed as concentration of itraconazole
Protocol: Materials: Itraconazole EP Micronized (lot number C149307) and PCCA Formula #10342 (4 g of Itraconazole EP Micronized+37.574 g of Poloxamer composition) were provided by PCCA (Houston, Tex., USA) as powders. Itraconazole and PCCA Formula #10342 were prepared on the day of the assay. Fluconazole and amphotericin B were obtained as powders and stored at 4° C. […] Strain: Candida albicans isolate ATCC 90028 was obtained from American Type Culture Collection (Manassas, Va.), and used in the course of this study. Methods: In order to determine antimicrobial activity of itraconazole and the micronized poloxamer composition against biofilms of Candida albicans, an antifungal biofilm susceptibility testing was developed in conditions where a Minimum Biofilm Inhibitory Concentration (MBIC) of itraconazole within the micronized poloxamer composition, micronized poloxamer excipient, itraconazole, fluconazole and amphotericin B was measured for the C. albicans biofilm according to the conventional NCCLS M27-A broth microdilution method. The testing medium used for growing was RPMI 1640 (American Biorganics, Inc., […].) supplemented with L-glutamine (Sigma Aldrich®). Yeast inocula (100 μL of 1×10^6 cells/mL) were added to each well of 96-well microtiter plates (Corning) and incubated at 37° C. for 48 h. After biofilm formation, medium was aspirated and non-adherent cells were […] (PBS, Sigma Aldrich®). […] A series of sample-free wells and biofilm-free wells were also included to serve as positive and negative controls, respectively. […] Cell viability was determined by using a conventional CellTiter 96® Non-Radioactive Cell Proliferation Assay.

SMILES | MBIC [µg/mL] | Minimum Biofilm Inhibitory Concentration
C[C@@H]1[C@H](O)[C@@H](C)/C=C/C=C/C=C/C=C/C=C/C=C/C=C/[C@H](O[C@@H]2O[C@H](C)[C@@H](O)[C@H](N)[C@@H]2O)C[C@@H]2O[C@](O)(C[C@@H](O)C[C@@H](O)[C@H](O)CC[C@@H](O)C[C@@H](O)CC(=O)O[C@H]1C)C[C@H](O)[C@H]2C(=O)O [Amphotericin B, amphotericin B] | 0.5 | 0.5 µg/mL
CCC(C)n1ncn(-c2ccc(N3CCN(c4ccc(OCC5COC(Cn6cncn6)(c6ccc(Cl)cc6Cl)O5)cc4)CC3)cc2)c1=O (centres unmarked) [Itraconazole, itraconazole] |  | 1024 µg/mL
OC(Cn1cncn1)(Cn1cncn1)c1ccc(F)cc1F [Fluconazole, fluconazole] | > 1024 | >1,024 ug/mL
